Assay results: ChEMBL document CHEMBL5223077, “Recent advances on synthesis and biological activities of aurones” (Bioorg Med Chem, 2021)
≈ marks a conversion by molar mass, not a printed value.

Experiments:
[1] = tested on: Mycobacterium tuberculosis; experiment: Antimycobacterial activity against multidrug resistant Mycobacterium tuberculosis; format: functional
[2] = tested on: Mycobacterium tuberculosis; experiment: Antimycobacterial activity against extensively drug resistant Mycobacterium tuberculosis; format: functional

## CC(=O)N1/C(=C\c2ccc(-c3ccsc3)cc2)C(=O)c2ccccc21
[1]
  MIC: 7.55 µM (≈ 2.61 µg/mL)
[2]
  MIC: 7.55 µM (≈ 2.61 µg/mL)
